What follows are compounds tested against T1, human KSP motor domain (KSP(367H)) (Homo sapiens, UniProt P52732) (assay: Kinesin ATPase In Vitro Assay). Details: kinesin motor domain with microtubules, 1 mM ATP, 23° C.; free phosphate by quinaldine red/ammonium molybdate, absorbance 540 nm.
T1 construct: were used to amplify the motor domain and the neck linker region; made in house; host or cells: E. coli BL21 (DE3), pRSETa
T1 sequence (P52732 18-359 limits assumed): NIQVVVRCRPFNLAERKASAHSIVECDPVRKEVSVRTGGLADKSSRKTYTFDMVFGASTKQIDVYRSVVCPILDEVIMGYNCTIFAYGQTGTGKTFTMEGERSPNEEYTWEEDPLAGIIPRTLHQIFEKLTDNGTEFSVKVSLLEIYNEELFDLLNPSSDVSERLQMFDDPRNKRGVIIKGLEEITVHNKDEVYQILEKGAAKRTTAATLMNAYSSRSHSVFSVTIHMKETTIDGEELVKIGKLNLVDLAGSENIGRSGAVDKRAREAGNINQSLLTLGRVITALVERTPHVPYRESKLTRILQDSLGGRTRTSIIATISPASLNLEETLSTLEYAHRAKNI
Type: biochemical
Text: I. Kinesin ATPase In Vitro Assay
Cloning and Expression of Human Poly-Histidine Tagged KSP Motor Domain (KSP(367H))
Plasmids for the expression of the human KSP motor domain construct were cloned by PCR using a pBluescript full length human KSP construct (Blangy et al., Cell, vol. 83, pp1159-1169, 1995) as a template. The N-terminal primer 5′-[…] (SEQ.ID.NO.: 1) and the C-terminal primer 5′-[…] […] (SEQ.ID.NO.: 2) were used to amplify the motor domain and the neck linker region. The PCR products were digested with AseI and XhoI, ligated into the NdeI/XhoI digestion product of pRSETa (Invitrogen) and transformed into E. coli BL21 (DE3).
Cells were grown at 37° C. to an OD600 of 0.5. After cooling the culture to room temperature expression of KSP was induced with 100 μM IPTG and incubation was continued overnight. Cells were pelleted by centrifugation and washed once with ice-cold PBS. Pellets were flash-frozen and stored −80° C.
Cell pellets were thawed on ice and resuspended in lysis buffer (50 mM K-HEPES, pH 8.0, 250 mM KCl, 0.1% Tween, 10 mM imidazole, 0.5 mM Mg-ATP, 1 mM PMSF, 2 mM benzimidine, 1× complete protease inhibitor cocktail (Roche)). Cell suspensions were incubated with 1 mg/ml lysozyme and 5 mM β-mercaptoethanol on ice for 10 minutes, followed by sonication (3×30 sec). All subsequent procedures were performed at 4° C. Lysates were centrifuged at 40,000×g for 40 minutes. Supernatants were diluted and loaded onto an SP Sepharose column (Pharmacia, 5 ml cartridge) in buffer A (50 mM K-HEPES, pH 6.8, 1 mM MgCl2, 1 mM EGTA, 10 μM Mg-ATP, 1 mM DTT) and eluted with a 0 to 750 mM KCl gradient in buffer A. Fractions containing KSP were pooled and incubated with Ni-NTA resin (Qiagen) for one hour. The resin was washed three times with buffer B (Lysis buffer minus PMSF and protease inhibitor cocktail), followed by three 15-minute incubations and washes with buffer B. Finally, the resin was incubated and washed for 15 minutes three times with buffer C (same as buffer B except for pH 6.0) and poured into a column. […]
The kinesin motor domain is incubated with microtubules, 1 mM ATP (1:1 MgCl2:Na-ATP), and compound at 23° C. in buffer containing 80 mM K-HEPES (pH 7.0), 1 mM EGTA, 1 mM DTT, 1 mM MgCl2, and 50 mM KCl. […] Free phosphate from the ATP hydrolysis reaction is measured via a quinaldine red/ammonium molybdate assay by adding 150 μl of quench C buffer containing a 2:1 ratio of quench A:quench B. Quench A contains 0.1 mg/ml quinaldine red and 0.14% polyvinyl alcohol; quench B contains 12.3 mM ammonium molybdate tetrahydrate in 1.15 M sulfuric acid. The reaction is incubated for 10 minutes at 23° C., and the absorbance of the phospho-molybdate complex is measured at 540 nm.

IC50, ≤ 50 µM:
CCC(c1nc2cnccc2c(=O)n1Cc1ccccc1)N(CCN(C)C)C(=O)c1ccc(Br)cc1 (racemic) [Compound 3-7, 2-[1′-(N-4-bromobenzoyl)-(N,N-dimethylethylenediamino)propyl]-3-benzyl-pyrido[3,4-d]pyrimidin-4(3H)-one]
CCC(c1nc2ncccc2c(=O)n1Cc1ccccc1)N(CCN(C)C)C(=O)c1ccc(Br)cc1 (stereo not shown) [Compound 1-6, N-[1-(3-benzyl-4-oxo-3,4-dihydropyrido[2,3-d]pyrimidin-2-yl)propyl]-4-bromo-N-[2-(dimethylamino)ethyl]benzamide]
CCC(c1nc2c(c(=O)n1Cc1ccccc1)CCCN2)N(CCN(C)C)C(=O)c1ccc(Br)cc1 (stereo not shown) [Compound 2-2, N-[1-(3-benzyl-4-oxo-3,4,5,6,7,8-hexahydropyrido[2,3-d]pyrimidin-2-yl)propyl]4-bromo-N-[2-(dimethylamino)ethyl]benzamide]
CCC(c1nc2cccnc2c(=O)n1Cc1ccccc1)N(CCN(C)C)C(=O)c1ccc(Br)cc1 (stereo not shown) [Compound 5-6, N-[1-(3-benzyl-4-oxo-3,4-dihydropyrido[3,2-d]pyrimidin-2-yl)propyl]-4-bromo-N-[2-(dimethylamino)ethyl]benzamide]

From patent US20050203110A1, “Mitotic kinesin inhibitors” (priority 2002, published 2005)
